Columns and labels:
[1] = system: M. luteus; assay: Antimicrobial activity vs. M. luteus (disk zones of inhibition); assay type: cell-based
Experimental: (§1) The antimicrobial activities (vs. M. luteus) and the cytotoxic activities (vs. CV-1 cells) of the ecteinascidins and ecteinascidin 743 derivatives are shown in Table 1 and 2. […] All of the derivatives of ecteinascidin 743 that were prepared have antimicrobial and cytotoxic activities.

[2] = system: P388 leukemia; assay: In vivo P388 mouse leukemia test; conditions: for antitumor activity (in words): mouse, in vivo
Text: Compounds of this invention are also active in vivo against P388 leukemia in mice. The P388 mouse leukemia test is described in detail in a publication by G. L. Neil et al., Cancer Treatment Reports, 63: 1971-1978 (1979).

[3] = system: CV-1 cells; assay: Cytotoxic activity vs. CV-1 cells (disk zones of inhibition); assay type: cell-based; conditions: Cercopithecidae, read-out: Zones of Inhibition
Experimental: as §1

[4] = system: bacteria; assay: Antibacterial Activity (disk zone of inhibition, Example 4); assay type: cell-based
Text: | Zone of inhibition (mm)

[5] = system: B16 Melanoma; assay: Antitumor activity vs. B16 Melanoma; assay type: in vivo; conditions: 0.01 mg/kg; Table 5

COc1cc2c(cc1O)CCN[C@]21CS[C@@H]2c3c(OC(C)=O)c(C)c4c(c3[C@H](COC1=O)N1[C@@H]2[C@@H]2N[C@@H](Cc3cc(C)c(OC)c(O)c32)[C@@H]1O)OCO4 [Ecteinascidin 729]
zone of inhibition at 0.05 µg/disc ([1]; Micrococcus luteus, 50 ng/6.35-mm disk): 7 mm | zone of inhibition at 0.1 µg/disc ([1]; Micrococcus luteus, 100 ng/6.35-mm disk): 8 mm | zone of inhibition at 0.2 µg/disc ([1]; Micrococcus luteus, 200 ng/6.35-mm disk): 11 mm | zone of inhibition at 0.4 µg/disc ([1]; Micrococcus luteus, 400 ng/6.35-mm disk): 15 mm | zone of inhibition at 0.8 µg/disc ([1]; Micrococcus luteus, 800 ng/6.35-mm disk): 16 mm | zone of inhibition at 1.6 µg/disc ([1]; Micrococcus luteus, 1600 ng/6.35-mm disk): 18 mm | antimicrobial activity (in words) ([1]; dilutions accurate to within a factor of 2): approximately equivalent and represent the most potent compounds in the series | T/C (%) ([2]; 0.0038 mg/kg, Table 4): 214% | antitumor activity (in words) [2]: strong antitumor activity | antitumor activity (in words) ([2]; listed as Et 729): the most active antitumor agent | zone of inhibition at 0.05 µg/disc ([3]; 50 ng/6.35-mm disk): 9 mm | zone of inhibition at 0.1 µg/disc ([3]; 100 ng/6.35-mm disk): 10 mm | zone of inhibition at 0.2 µg/disc ([3]; 200 ng/6.35-mm disk): 10 mm | zone of inhibition at 0.4 µg/disc ([3]; 400 ng/6.35-mm disk): 13 mm | zone of inhibition at 0.8 µg/disc ([3]; 800 ng/6.35-mm disk): 16 mm | zone of inhibition at 1.6 µg/disc ([3]; 1600 ng/6.35-mm disk): 18 mm | zone of inhibition at 0.063 µg/disc ([4]; 0.063 μg/disk): 19 mm | zone of inhibition at 0.125 µg/disc ([4]; 0.125 μg/disk): 20 mm | zone of inhibition at 0.25 µg/disc ([4]; 0.250 μg/disk): 22 mm | T/C (%) [5]: 246%
